Measured values published in patent US12558428B2, “Heterobifunctional compounds and their use in treating disease” (Halda Therapeutics OpCo, Inc., priority 2024, dated 2026).
Where two headings read alike, the source gives them in different places.

Legend:
Type in all cases: cell-based
[1] = system: T-Rex 293 cells having increased expression of estrogen receptor alpha protein; assay: Cellular growth inhibition assay, T-Rex 293 cells, (+) doxycycline; settings: T-REx-293, 72 h, T-Rex 293 cells with doxycycline (increased ERα expression), 72 hours, CellTiter-Glo, read-out: (+) Dox GI50
Summary of the method: (§1)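 ERα overexpression was switched on by 3 ng/mL doxycycline in a stably transfected T-Rex 293 clone, while uninduced cells served as the comparison line. Proliferation over 72 h of compound treatment was assessed by ATP luminescence, and GI50 values came from four-parameter curves.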

[2] = system: T-Rex 293 cells lacking increased expression of estrogen receptor alpha protein; assay: Cellular growth inhibition assay, T-Rex 293 cells, (−) doxycycline; settings: T-REx-293, 72 h, T-Rex 293 cells without doxycycline (lacking increased ERα expression), 72 hours, CellTiter-Glo, read-out: (−) Dox GI50
Summary of the method: as §1

[3] = system: MCF7 cells (ATCC #HTB-22); assay: Cellular growth inhibition assay, MCF7 cells purchased from ATCC; settings: Homo sapiens, MCF7, 144 h, Table 8-A; MCF7 cells purchased from ATCC; six days; CellTiter-Glo; read-out: GI50
Summary of the method: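 MCF7 cells in RPMI 1640 with 10% FBS and 0.2 U/ml insulin, seeded at 1,500 cells/well (ATCC) or 225 cells/well (ECACC). Compounds added 24 h later, then 6 days at 37° C. Viability by CellTiter-Glo 2.0 luminescence. GI50 from four-parameter fit.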

| Structure (SMILES) | GI50 [3] [nM] | GI50 ([1]; Table 7-A) [nM] | GI50 ([2]; Table 7-A) [nM] | GI50 ([1]; Table 7-B) [nM] | GI50 ([2]; Table 7-B) [nM] |
| --- | --- | --- | --- | --- | --- |
| Cc1sc2c(c1C)C(c1ccc(N3CCN(CC4CCN(c5ccc(C6=C(c7ccc(Cl)cc7Cl)CCCc7cc(C(=O)O)ccc76)cc5)CC4)CC3)cc1)=N[C@@H](C)c1nnc(C)n1-2 [IV-1] | 50 to 500 | < 50 | > 2500 | – | – |
| Cc1sc2c(c1C)C(c1ccc(N3CCN(CCN4CC[C@H](Oc5ccc(C6=C(c7ccc(Cl)cc7Cl)CCCc7cc(C(=O)O)ccc76)cc5)C4)CC3)cc1)=N[C@@H](C)c1nnc(C)n1-2 [IV-2] | 50 to 500 | 50 to 500 | 500 to 2500 | – | – |
| Cc1sc2c(c1C)C(c1ccc(N3CCN(CCN4CC(Oc5ccc(C6=C(c7ccc(Cl)cc7Cl)CCCc7cc(C(=O)O)ccc76)cc5)C4)CC3)cc1)=N[C@@H](C)c1nnc(C)n1-2 [IV-3] | 50 to 500 | < 50 | 500 to 2500 | – | – |
| Cc1sc2c(c1C)C(c1ccc(N3CCN(CC4CCN(c5ccc(C6=C(c7ccc(Cl)cc7Cl)CCCc7cc(C(=O)O)ccc76)cc5)CC4)CC3)cc1)=N[C@@H](Cc1ncco1)c1nnc(C)n1-2 [IV-4] | < 50 | 50 to 500 | 500 to 2500 | – | – |
| Cc1sc2c(c1C)C(c1ccc(N3CCC(O)(CN4CCC(c5ccc(C6=C(c7ccc(Cl)cc7Cl)CCCc7cc(C(=O)O)ccc76)cc5)CC4)CC3)cc1)=N[C@@H](C)c1nnc(C)n1-2 [IV-5] | 50 to 500 | < 50 | > 2500 | – | – |
| Cc1sc2c(c1C)C(c1ccc(N3CCC(CN4CCC(c5ccc(C6=C(c7ccc(Cl)cc7Cl)CCCc7cc(C(=O)O)ccc76)cc5)CC4)CC3)cc1)=N[C@@H](C)c1nnc(C)n1-2 [IV-6] | 50 to 500 | 50 to 500 | 500 to 2500 | – | – |
| Cc1sc2c(c1C)C(c1ccc(N3CCC(C(=O)N4CCN(c5ccc(C6=C(c7ccc(Cl)cc7Cl)CCCc7cc(C(=O)O)ccc76)cc5)CC4)CC3)cc1)=N[C@@H](C)c1nnc(C)n1-2 [IV-7] | 50 to 500 | 50 to 500 | 500 to 2500 | – | – |
| Cc1sc2c(c1C)C(c1ccc(N3CC(CN4CCN(CC5CN(c6ccc(C7=C(c8ccc(Cl)cc8Cl)CCCc8cc(C(=O)O)ccc87)cc6)C5)CC4)C3)cc1)=N[C@@H](C)c1nnc(C)n1-2 [IV-8] | < 50 | < 50 | 500 to 2500 | – | – |
| Cc1sc2c(c1C)C(c1ccc(N3CCC(O)(CN4CCN(c5ccc(C6=C(c7ccc(Cl)cc7Cl)CCCc7cc(C(=O)O)ccc76)cc5)CC4)CC3)cc1)=N[C@@H](C)c1nnc(C)n1-2 [IV-9] | < 50 | < 50 | 500 to 2500 | – | – |
| Cc1sc2c(c1C)C(c1ccc(N3CC(CN4CCN(c5ccc(C6=C(c7ccc(Cl)cc7Cl)CCCc7cc(C(=O)O)ccc76)cc5)CC4)C3)cc1)=N[C@@H](C)c1nnc(C)n1-2 [IV-10] | 50 to 500 | 50 to 500 | 500 to 2500 | – | – |
| Cc1sc2c(c1C)C(c1ccc(N3CCC(CN4CCN(c5ccc(C6=C(c7ccc(Cl)cc7Cl)CCCc7cc(C(=O)O)ccc76)cc5)CC4)CC3)cc1)=N[C@@H](C)c1nnc(C)n1-2 [IV-11] | 50 to 500 | < 50 | 500 to 2500 | – | – |
| Cc1sc2c(c1C)C(c1ccc(CC(=O)N3CCC4(CCN(c5ccc(C6=C(c7ccc(Cl)cc7Cl)CCCc7cc(C(=O)O)ccc76)cc5)CC4)C3)cc1)=N[C@@H](C)c1nnc(C)n1-2 [IV-12] | 50 to 500 | 50 to 500 | 500 to 2500 | – | – |
| Cc1sc2c(c1C)C(c1ccc(N3CC(CN4CCN(c5ccc(C6=C(c7ccc(Cl)cc7Cl)CCCc7cc(C(=O)O)ccc76)cc5)CC4)C3)cc1)=N[C@@H](Cc1ncco1)c1nnc(C)n1-2 [IV-13] | < 50 | < 50 | 50 to 500 | – | – |
| Cc1sc2c(c1C)C(c1ccc(N3CCC(CN4CCN(c5ccc(C6=C(c7ccc(Cl)cc7Cl)CCCc7cc(C(=O)O)ccc76)cc5)CC4)CC3)cc1)=N[C@@H](Cc1ncco1)c1nnc(C)n1-2 [IV-14] | < 50 | < 50 | 500 to 2500 | – | – |
| Cc1sc2c(c1C)C(c1ccc(N3CCC(O)(CN4CCN(c5ccc(C6=C(c7ccc(Cl)cc7Cl)CCCc7cc(C(=O)O)ccc76)cc5)CC4)CC3)cc1)=N[C@H](C)c1nnc(C)n1-2 [IV-15] | 500 to 2500 | > 2500 | > 2500 | – | – |
| Cc1sc2c(c1C)C(c1ccc(N3CCC(O)(CN4CCN(c5ccc(C6=C(c7ccccc7)CCCc7cc(C(=O)O)ccc76)cc5)CC4)CC3)cc1)=N[C@@H](C)c1nnc(C)n1-2 [IV-16] | < 50 | < 50 | 500 to 2500 | – | – |
| Cc1sc2c(c1C)C(c1ccc(N3CCC(O)(CN4CCN(c5ccc(C6=C(c7ccccc7)CCCc7cc(O)ccc76)cc5)CC4)CC3)cc1)=N[C@@H](C)c1nnc(C)n1-2 [IV-17] | < 50 | < 50 | 500 to 2500 | – | – |
| Cc1sc2c(c1C)C(c1ccc(N3CCC(O)(CN4CCN(c5ccc(C6=C(c7ccccc7Cl)CCCc7cc(C(=O)O)ccc76)cc5)CC4)CC3)cc1)=N[C@@H](C)c1nnc(C)n1-2 [IV-18] | < 50 | < 50 | 500 to 2500 | – | – |

Continued, in another order:

| GI50 [3] [nM] | Structure (SMILES) | GI50 ([1]; Table 7-A) [nM] | GI50 ([2]; Table 7-A) [nM] | GI50 ([1]; Table 7-B) [nM] | GI50 ([2]; Table 7-B) [nM] |
| --- | --- | --- | --- | --- | --- |
| 50 to 500 | Cc1sc2c(c1C)C(c1ccc(N3CCC(O)(CN4CCN(c5ccc([C@H]6c7ccc(O)cc7CC[C@H]6c6ccc(F)cc6)c(Cl)c5)CC4)CC3)cc1)=N[C@@H](C)c1nnc(C)n1-2 [III-306] | 50 to 500 | 500 to 2500 | – | – |
| 50 to 500 | COc1cc(N2CCN(CC3(O)CCN(c4ccc(C5=N[C@@H](C)c6nnc(C)n6-c6sc(C)c(C)c65)cc4)CC3)CC2)ccc1[C@H]1c2ccc(O)cc2CC[C@H]1c1cccc(F)c1 [III-309] | 50 to 500 | 50 to 500 | – | – |
| < 50 | COc1cc(N2CCN(CC3(O)CCN(c4ccc(C5=N[C@@H](C)c6nnc(C)n6-c6sc(C)c(C)c65)cc4)CC3)CC2)ccc1[C@@H]1c2ccc(O)cc2CC[C@@H]1c1cccc(F)c1 [III-310] | < 50 | 500 to 2500 | – | – |
| 50 to 500 | Cc1sc2c(c1C)C(c1ccc(N3CCC(CN4CCN(c5cc(F)c([C@@H]6c7ccc(O)cc7CC[C@@H]6c6ccccc6)cc5F)CC4)CC3)cc1)=N[C@@H](C)c1nnc(C)n1-2 [III-317] | < 50 | 50 to 500 | – | – |
| 50 to 500 | Cc1sc2c(c1C)C(c1ccc(N3CCC(CN4CCN(c5cc(F)c([C@H]6c7ccc(O)cc7CC[C@H]6c6ccccc6)cc5F)CC4)CC3)cc1)=N[C@@H](C)c1nnc(C)n1-2 [III-318] | 50 to 500 | 50 to 500 | – | – |
| < 50 | COc1cc(N2CCN(CC3(O)CCN(c4cc(F)c(C5=N[C@@H](C)c6nnc(C)n6-c6sc(C)c(C)c65)cc4F)CC3)CC2)ccc1[C@@H]1c2ccc(O)cc2CC[C@@H]1c1ccccc1 [III-339, 1-(2,5-difluoro-4-((S)-2,3,6,9-tetramethyl-6H-thieno[3,2-f][1,2,4]triazolo[4,3-a][1,4]diazepin-4-yl)phenyl)-4-((4-(4-((1S,2S)-6-hydroxy-2-phenyl-1,2,3,4-tetrahydronaphthalen-1-yl)-3-methoxyphenyl)piperazin-1-yl)methyl)piperidin-4-ol] | < 50 | > 2500 | – | – |
| 50 to 500 | COc1cc(N2CCN(CC3(O)CCN(c4cc(F)c(C5=N[C@@H](C)c6nnc(C)n6-c6sc(C)c(C)c65)cc4F)CC3)CC2)ccc1[C@H]1c2ccc(O)cc2CC[C@H]1c1ccccc1 [III-340, 1-(2,5-difluoro-4-((S)-2,3,6,9-tetramethyl-6H-thieno[3,2-f][1,2,4]triazolo[4,3-a][1,4]diazepin-4-yl)phenyl)-4-((4-(4-((1R,2R)-6-hydroxy-2-phenyl-1,2,3,4-tetrahydronaphthalen-1-yl)-3-methoxyphenyl)piperazin-1-yl)methyl)piperidin-4-ol] | 50 to 500 | 50 to 500 | – | – |
| < 50 | COc1cc(N2CCN(CC3(O)CCN(c4cc(F)c(C5=N[C@@H](C)c6nnc(C)n6-c6sc(C)c(C)c65)cc4F)CC3)CC2)c(F)cc1[C@@H]1c2ccc(O)cc2CC[C@@H]1c1ccccc1 [III-341, 1-(2,5-difluoro-4-((6S)-2,3,6,9-tetramethyl-6H-thieno[3,2-f][1,2,4]triazolo[4,3-a][1,4]diazepin-4-yl)phenyl)-4-((4-(2-fluoro-4-((1S,2S)-6-hydroxy-2-phenyl-1,2,3,4-tetrahydronaphthalen-1-yl)-5-methoxyphenyl)piperazin-1-yl)methyl)piperidin-4-ol] | < 50 | > 2500 | – | – |
| 50 to 500 | COc1cc(N2CCN(CC3(O)CCN(c4cc(F)c(C5=N[C@@H](C)c6nnc(C)n6-c6sc(C)c(C)c65)cc4F)CC3)CC2)c(F)cc1[C@H]1c2ccc(O)cc2CC[C@H]1c1ccccc1 [III-342, 1-(2,5-difluoro-4-((6S)-2,3,6,9-tetramethyl-6H-thieno[3,2-f][1,2,4]triazolo[4,3-a][1,4]diazepin-4-yl)phenyl)-4-((4-(2-fluoro-4-((1R,2R)-6-hydroxy-2-phenyl-1,2,3,4-tetrahydronaphthalen-1-yl)-5-methoxyphenyl)piperazin-1-yl)methyl)piperidin-4-ol] | 50 to 500 | 50 to 500 | – | – |
| < 50 | Cc1sc2c(c1C)C(c1ccc(N3C[C@@H]4C(NCCOc5ccc([C@H]6c7ccc(O)cc7CC[C@H]6c6ccccc6)cc5)[C@H]4C3)cc1)=NC(Cc1ncco1)c1nnc(C)n1-2 (stereo partly drawn) [III-347] | – | – | < 50 | < 50 |
